# Experimental data as given in PubChem BioAssay AID1963980 (Molecular Pharmacology Branch, DTP, NCI, 2024).
# pIC50: −log10 of the molar value.
# System: 475296-252-R-J1-PDC spheroid viability
# Assay: Anticancer human tumor 475296-252-R-J1-PDC patient-derived rectal carcinoma cell line growth inhibition [PI3K]
# Details: spheroids with HUVEC and MSC; for pIC50: curve of first compound; for viability, T/C: stronger effect = lower value
# In short: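 Stroma-containing spheroids: tumor line, pooled-donor HUVEC, hMSC. Treatments: targeted agents with PI3K inhibitors. Dosing: clinically relevant, half-log spacing, 10 microM ceiling without known Cmax. Read-out: cell viability.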
# 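Note: spheroids exposed to agents for seven days before readout.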
structure (smiles),measurement,setting,value
Cn1cnc2c(F)c(Nc3ccc(Br)cc3Cl)c(C(=O)NOCCO)cc21 + Cc1nc(NC(=O)N2CCCC2C(N)=O)sc1-c1ccnc(C(C)(C)C(F)(F)F)c1,pIC50,second compound 0.0316 µM,< 5.52
same,pIC50,second compound 0.1 µM,< 5.52
same,pIC50,second compound 0.316 µM,5.52
same,pIC50,second compound 1 µM,6.12
same,pIC50,second compound 3.16 µM,6.33
same,pIC50,second compound 10 µM,7.11
same,"viability, T/C","second compound 0.0316 µM, first compound 0.00949 µM",102%
same,"viability, T/C","second compound 0.0316 µM, first compound 0.03 µM",81.9%
same,"viability, T/C","second compound 0.0316 µM, first compound 0.0949 µM",85.7%
same,"viability, T/C","second compound 0.0316 µM, first compound 0.3 µM",75.7%
same,"viability, T/C","second compound 0.0316 µM, first compound 0.949 µM",76.6%
same,"viability, T/C","second compound 0.0316 µM, first compound 3 µM",61.8%
same,"viability, T/C","second compound 0.1 µM, first compound 0.00949 µM",91.7%
same,"viability, T/C","second compound 0.1 µM, first compound 0.03 µM",78.7%
same,"viability, T/C","second compound 0.1 µM, first compound 0.0949 µM",93.2%
same,"viability, T/C","second compound 0.1 µM, first compound 0.3 µM",73.2%
same,"viability, T/C","second compound 0.1 µM, first compound 0.949 µM",74.6%
same,"viability, T/C","second compound 0.1 µM, first compound 3 µM",58%
same,"viability, T/C","second compound 0.316 µM, first compound 0.00949 µM",89.4%
same,"viability, T/C","second compound 0.316 µM, first compound 0.03 µM",89.8%
same,"viability, T/C","second compound 0.316 µM, first compound 0.0949 µM",73.4%
same,"viability, T/C","second compound 0.316 µM, first compound 0.3 µM",72.9%
same,"viability, T/C","second compound 0.316 µM, first compound 0.949 µM",64.3%
same,"viability, T/C","second compound 0.316 µM, first compound 3 µM",48.3%
same,"viability, T/C","second compound 1 µM, first compound 0.00949 µM",79.9%
same,"viability, T/C","second compound 1 µM, first compound 0.03 µM",89.3%
same,"viability, T/C","second compound 1 µM, first compound 0.0949 µM",69%
same,"viability, T/C","second compound 1 µM, first compound 0.3 µM",63.9%
same,"viability, T/C","second compound 1 µM, first compound 0.949 µM",47%
same,"viability, T/C","second compound 1 µM, first compound 3 µM",35.9%
same,"viability, T/C","second compound 3.16 µM, first compound 0.00949 µM",75.8%
same,"viability, T/C","second compound 3.16 µM, first compound 0.03 µM",73.6%
same,"viability, T/C","second compound 3.16 µM, first compound 0.0949 µM",66.2%
same,"viability, T/C","second compound 3.16 µM, first compound 0.3 µM",59.9%
same,"viability, T/C","second compound 3.16 µM, first compound 0.949 µM",36.4%
same,"viability, T/C","second compound 3.16 µM, first compound 3 µM",23.8%
same,"viability, T/C","second compound 10 µM, first compound 0.00949 µM",83.9%
same,"viability, T/C","second compound 10 µM, first compound 0.03 µM",67%
same,"viability, T/C","second compound 10 µM, first compound 0.0949 µM",45.6%
same,"viability, T/C","second compound 10 µM, first compound 0.3 µM",28.2%
same,"viability, T/C","second compound 10 µM, first compound 0.949 µM",18.7%
same,"viability, T/C","second compound 10 µM, first compound 3 µM",5.93%
CCCS(=O)(=O)Nc1ccc(F)c(C(=O)c2c[nH]c3ncc(-c4ccc(Cl)cc4)cc23)c1F + CC(Nc1ncnc2nc[nH]c12)c1cc2cccc(Cl)c2c(=O)n1-c1ccccc1,pIC50,second compound 0.0316 µM,< 5.00
same,pIC50,second compound 0.1 µM,< 5.00
same,pIC50,second compound 0.316 µM,< 5.00
same,pIC50,second compound 1 µM,< 5.00
same,pIC50,second compound 3.16 µM,< 5.00
same,pIC50,second compound 10 µM,< 5.00
same,"viability, T/C","second compound 0.0316 µM, first compound 0.0316 µM",96.5%
same,"viability, T/C","second compound 0.0316 µM, first compound 0.1 µM",112%
same,"viability, T/C","second compound 0.0316 µM, first compound 0.316 µM",103%
same,"viability, T/C","second compound 0.0316 µM, first compound 1 µM",94.8%
same,"viability, T/C","second compound 0.0316 µM, first compound 3.16 µM",85.1%
same,"viability, T/C","second compound 0.0316 µM, first compound 10 µM",110%
same,"viability, T/C","second compound 0.1 µM, first compound 0.0316 µM",110%
same,"viability, T/C","second compound 0.1 µM, first compound 0.1 µM",110%
same,"viability, T/C","second compound 0.1 µM, first compound 0.316 µM",97.3%
same,"viability, T/C","second compound 0.1 µM, first compound 1 µM",90.6%
same,"viability, T/C","second compound 0.1 µM, first compound 3.16 µM",107%
same,"viability, T/C","second compound 0.1 µM, first compound 10 µM",100%
same,"viability, T/C","second compound 0.316 µM, first compound 0.0316 µM",94.6%
same,"viability, T/C","second compound 0.316 µM, first compound 0.1 µM",88.6%
same,"viability, T/C","second compound 0.316 µM, first compound 0.316 µM",99.4%
same,"viability, T/C","second compound 0.316 µM, first compound 1 µM",101%
same,"viability, T/C","second compound 0.316 µM, first compound 3.16 µM",90.9%
same,"viability, T/C","second compound 0.316 µM, first compound 10 µM",105%
same,"viability, T/C","second compound 1 µM, first compound 0.0316 µM",89.5%
same,"viability, T/C","second compound 1 µM, first compound 0.1 µM",104%
same,"viability, T/C","second compound 1 µM, first compound 0.316 µM",96.2%
same,"viability, T/C","second compound 1 µM, first compound 1 µM",90.6%
same,"viability, T/C","second compound 1 µM, first compound 3.16 µM",96.7%
same,"viability, T/C","second compound 1 µM, first compound 10 µM",96.6%
same,"viability, T/C","second compound 3.16 µM, first compound 0.0316 µM",97%
same,"viability, T/C","second compound 3.16 µM, first compound 0.1 µM",104%
same,"viability, T/C","second compound 3.16 µM, first compound 0.316 µM",90%
same,"viability, T/C","second compound 3.16 µM, first compound 1 µM",100%
same,"viability, T/C","second compound 3.16 µM, first compound 3.16 µM",87.6%
same,"viability, T/C","second compound 3.16 µM, first compound 10 µM",87.4%
same,"viability, T/C","second compound 10 µM, first compound 0.0316 µM",101%
same,"viability, T/C","second compound 10 µM, first compound 0.1 µM",80.1%
same,"viability, T/C","second compound 10 µM, first compound 0.316 µM",79.8%
same,"viability, T/C","second compound 10 µM, first compound 1 µM",97%
same,"viability, T/C","second compound 10 µM, first compound 3.16 µM",90.3%
same,"viability, T/C","second compound 10 µM, first compound 10 µM",92.3%
